Some test systems named below: KM12 colon; M14 melanoma; SF-295 CNS; SK-MEL-5 melanoma; BT-549 breast; HL-60(TB) leukemia; K-562 leukemia; T-47D breast; MDA-N; COLO 205 colon; HT29 colon; U251 CNS; MOLT-4 leukemia.
Holding throughout (assay): DTP human tumour cell line panel, 48 h

Structures are written as SMILES.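 Results reflect a 48-hour exposure of cells in 96-well plates to compound at five concentrations. TGI denotes the concentration required for complete inhibition of growth.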

Results on 11 compounds are retold here after PubChem BioAssay (NCI).

What is called TGI is the concentration at which net growth stops. The low end stands for more potent growth arrest, the high end for less potent growth arrest.

In the case of `COC(=O)c1c(C)cccc1C1CN=NC12Cc1c(C)cccc1C2=O` (stereo not drawn), the TGI in the test on KM12 colon, in the test on M14 melanoma, in the test on SF-295 CNS, in the test on SK-MEL-5 melanoma, in the test on BT-549 breast and with HL-60(TB) leukemia was over 100 µM in each case. For the same compound, the TGI with K-562 leukemia, with T-47D breast, in the test with MDA-N, in the test with COLO 205 colon, in the test on HT29 colon and with U251 CNS was over 100 µM each time. This compound also yielded a TGI with MOLT-4 leukemia of over 100 µM.
For the compound `CC(C)Nc1n[nH]c(=O)n1C(C)C`, the TGI in the test with KM12 colon, in the test with M14 melanoma, in the test with SF-295 CNS, in the test with SK-MEL-5 melanoma, in the test on BT-549 breast and in the test with HL-60(TB) leukemia was over 100 µM in each case. For the same compound, the TGI with K-562 leukemia, in the test with T-47D breast, with MDA-N, in the test with COLO 205 colon, in the test with HT29 colon and in the test with U251 CNS was over 100 µM in each case. The TGI with MOLT-4 leukemia is over 100 µM.
Turning to `CN(C)CCCNC(=O)c1cc(NC(=O)CCCn2c3ccccc3c3ccccc32)cn1C`, the TGI in the test on KM12 colon, with M14 melanoma, in the test on SF-295 CNS, with SK-MEL-5 melanoma, with BT-549 breast and with HL-60(TB) leukemia was over 100 µM each time. Also, the TGI with K-562 leukemia is over 100 µM; with T-47D breast it was 75.2 µM; in the test on MDA-N it was over 100 µM; with COLO 205 colon it was 59.8 µM; in the test with HT29 colon it was over 100 µM; in the test on U251 CNS, over 100 µM. In the test with MOLT-4 leukemia, this compound came in with a TGI of over 100 µM.
In the case of `COc1ccc(-c2c(N)n(-c3cc(OC)cc(OC)c3)c(=O)c3cc([N+](=O)[O-])ccc23)cc1`, the TGI with KM12 colon was over 100 µM; with M14 melanoma, over 100 µM; with SF-295 CNS it was over 100 µM; with SK-MEL-5 melanoma, over 100 µM; in the test with BT-549 breast it was over 93.6 µM; with HL-60(TB) leukemia, over 100 µM. Further, the TGI in the test with K-562 leukemia, with T-47D breast, with MDA-N, in the test on COLO 205 colon, with HT29 colon and in the test on U251 CNS was over 100 µM throughout. The same compound yielded a TGI with MOLT-4 leukemia of over 100 µM.
On to `O=c1[nH]ncc2[nH]c3c(c12)CCCc1ccccc1-3`, for which the TGI in the test on KM12 colon, in the test on M14 melanoma, with SF-295 CNS, in the test on SK-MEL-5 melanoma, with BT-549 breast and in the test on HL-60(TB) leukemia was over 100 µM throughout. In addition, the TGI with K-562 leukemia is over 100 µM; in the test on T-47D breast, over 100 µM; in the test with MDA-N, 98.8 µM; in the test with COLO 205 colon it was 53.2 µM; in the test on HT29 colon it was over 100 µM; with U251 CNS, over 100 µM. In the test on MOLT-4 leukemia, this compound came in with a TGI of over 100 µM.
Consider `COc1cc(C(CN)N(C)C)cc(OC)c1OC` (stereo not drawn), for which the TGI with KM12 colon, in the test with M14 melanoma, in the test on SF-295 CNS, in the test on SK-MEL-5 melanoma, in the test on BT-549 breast and in the test with HL-60(TB) leukemia was over 100 µM throughout. Further, the TGI in the test with K-562 leukemia, in the test on T-47D breast, in the test on MDA-N, in the test with COLO 205 colon, with HT29 colon and in the test on U251 CNS was over 100 µM each time. The TGI in the test on MOLT-4 leukemia was over 100 µM.
On to `O=C(Nc1ccccc1)N1CC(CN2CCN(c3ccccc3)CC2)OC1=O` (stereo not drawn), for which the TGI in the test with KM12 colon, in the test with M14 melanoma, in the test on SF-295 CNS, with SK-MEL-5 melanoma, in the test on BT-549 breast and in the test with HL-60(TB) leukemia was over 100 µM throughout. The TGI with K-562 leukemia, with T-47D breast, with MDA-N, with COLO 205 colon, with HT29 colon and in the test with U251 CNS was over 100 µM throughout. In addition, the TGI in the test with MOLT-4 leukemia was over 100 µM.
As to `c1ccc(SCCP(CCP(c2ccccc2)c2ccccc2)c2ccccc2)cc1` (stereo not drawn), the TGI in the test with KM12 colon is over 51 µM; with M14 melanoma, 43.5 µM; in the test with SF-295 CNS, over 100 µM; in the test with SK-MEL-5 melanoma, 33.8 µM; with BT-549 breast it was 68.7 µM; in the test on HL-60(TB) leukemia, over 22.2 µM. Also, the TGI is over 100 µM in the test on K-562 leukemia; 79.1 µM in the test with T-47D breast; over 100 µM with MDA-N; 15.8 µM with COLO 205 colon; over 100 µM in the test on HT29 colon; over 100 µM in the test on U251 CNS. In the test on MOLT-4 leukemia, the TGI is 81.5 µM.
Consider `S=c1scc(-c2ccc(Cl)cc2)n1OC1CCCC1`, for which the TGI in the test with KM12 colon was over 100 µM; in the test with M14 melanoma it was over 100 µM; with SF-295 CNS it was over 100 µM; with SK-MEL-5 melanoma, 24.4 µM; in the test with BT-549 breast, 94.7 µM; with HL-60(TB) leukemia, 71.3 µM. Besides, the TGI in the test on K-562 leukemia is over 100 µM; in the test on T-47D breast it was over 100 µM; in the test on MDA-N it was over 100 µM; in the test with COLO 205 colon, 26.5 µM; in the test on HT29 colon, over 100 µM; in the test on U251 CNS it was 39.7 µM. Further, the TGI in the test with MOLT-4 leukemia turned out to be 67.7 µM.
As to `COC(=O)c1ccccc1C1CN=NC12Cc1c(C)c3c(c(C)c1C2=O)CCC3` (stereo not drawn), the TGI in the test with KM12 colon, with M14 melanoma, in the test with SF-295 CNS, in the test on SK-MEL-5 melanoma, with BT-549 breast and in the test on HL-60(TB) leukemia was over 100 µM in each case. Moreover, the TGI in the test with K-562 leukemia, in the test on T-47D breast, with MDA-N, in the test on COLO 205 colon, in the test on HT29 colon and in the test with U251 CNS was over 100 µM each time. In the test with MOLT-4 leukemia, this compound yielded a TGI of over 100 µM.
With `CCOC(=O)c1c(SCC#N)n(-c2ccccc2)c(=S)n(-c2ccccc2)c1=O`, the TGI in the test on KM12 colon, with M14 melanoma, in the test with SF-295 CNS, with SK-MEL-5 melanoma, in the test with BT-549 breast and in the test with HL-60(TB) leukemia was over 100 µM each time. The TGI with K-562 leukemia, in the test with T-47D breast, with MDA-N, in the test on COLO 205 colon, with HT29 colon and with U251 CNS was over 100 µM in each case. For the same compound, the TGI in the test on MOLT-4 leukemia was determined as 67.6 µM.
